Reference: ChEMBL document CHEMBL1141818, “Annonaceous acetogenins: recent progress” (J Nat Prod, 1999)
≈ marks a conversion by molar mass, not a printed value.

Key:
[1] = Toxicity in brine shrimp; type: organism-based; conditions: artemia, in vivo
[2] = tested on: MCF7; assay: Cytotoxicity against human MCF7 cells; type: functional; conditions: for EC50: Homo sapiens, MCF7, read-out: ED50 (the source's name)
[3] = tested on: MIA PaCa-2; assay: Cytotoxicity against human MIA PaCa2 cells; type: functional; conditions: for EC50: Homo sapiens, MIA PaCa-2, read-out: ED50 (the source's name)
[4] = tested on: PC-3; assay: Cytotoxicity against human PC-3 cells; type: functional; conditions: for EC50: Homo sapiens, PC-3, read-out: ED50 (the source's name)
[5] = tested on: HT-29; assay: Cytotoxicity against human HT-29 cells; type: functional; conditions: Homo sapiens, HT-29; read-out: ED50 (the source's name)
[6] = tested on: A549; assay: Cytotoxicity against human A549 cells; type: functional; conditions: for EC50: Homo sapiens, A549, read-out: ED50 (the source's name)
[7] = tested on: A498; assay: Cytotoxicity against human A-498 cells; type: functional; conditions: Homo sapiens, A498; read-out: ED50 (the source's name)
[8] = tested on: HCT-8; assay: Cytotoxicity against human HCT8 cells; type: functional, cell-based
[9] = tested on: KB; assay: Cytotoxicity against human KB cells; type: functional, cell-based; conditions: for IC50: Homo sapiens, KB

Structure (SMILES)	LC50 [1]	EC50 [2]	ED50 [3]	ED50 [4]	EC50 [5]	EC50 [6]	EC50 [7]	IC50 [8]	ED50 [2]	EC50 [3]	EC50 [4]	ED50 [6]	ED50 [9]	IC50 [9]
CCCCCCCCCC[C@@H]1O[C@H]([C@@H]2CC[C@H]([C@H](O)CCCCCCCCCC[C@@H](O)CC3=C[C@H](C)OC3=O)O2)CC[C@H]1O [JIMENEZIN]	0.0057 µg/mL (≈ 0.00915 µM)	> 0.1 µg/mL	1.7 ×10⁻⁴ ug/ml	2.8 ×10⁻⁴ ug/ml	0.0043 µg/mL (≈ 0.0069 µM)	0.016 µg/mL (≈ 0.0257 µM)	0.049 µg/mL (≈ 0.0787 µM)	–	–	–	–	–	–	–
CCCCCCCCCCCC[C@@H](O)[C@H]1CC[C@H]([C@H](O)CCCCC(O)CCCCC[C@@H](O)CC2=C[C@@](C)(O)OC2=O)O1 (stereo partly drawn) [GONIODONIN]	–	–	–	–	–	–	–	< 10 µg/mL	–	–	–	–	–	–
CCCCCCCCCC[C@H](O)[C@H]1CC[C@H]([C@H](O)CC[C@H](O)[C@@H]2CC[C@@H](CCCCC[C@@H](O)CC3=C[C@H](C)OC3=O)O2)O1 [TRILOBALICIN]	5.8 µg/mL (≈ 9.49 µM)	–	–	–	2.3 µg/mL (≈ 3.77 µM)	–	0.006 µg/mL (≈ 0.00982 µM)	–	1.6 ×10⁻⁷ ug/ml	0.28 µg/mL (≈ 0.458 µM)	0.98 µg/mL (≈ 1.6 µM)	5.8 ×10⁻⁸ ug/ml	–	–
CCCCCCCCCCCCCC[C@H]1O[C@@H]([C@H](O)CC[C@H](O)CCCCC[C@@H](O)CC2=C[C@H](C)OC2=O)CC[C@H]1O [PYRAGONICIN]	0.9 µg/mL (≈ 1.51 µM)	1.6 µg/mL (≈ 2.68 µM)	–	–	2.8 µg/mL (≈ 4.69 µM)	2 µg/mL (≈ 3.35 µM)	0.13 µg/mL (≈ 0.218 µM)	–	–	0.058 µg/mL (≈ 0.0972 µM)	0.12 µg/mL (≈ 0.201 µM)	–	–	–
CCCCCCCCCCCC[C@@H](O)[C@@H](O)CC[C@H](O)[C@@H]1CC[C@@H](CCC[C@@H](O)[C@H](O)CC[C@@H](O)CC2=C[C@H](C)OC2=O)O1 [MURIHEXOCIN]	10 µg/mL (≈ 15.9 µM)	3.8 µg/mL (≈ 6.04 µM)	–	–	1.3 µg/mL (≈ 2.07 µM)	1.1 µg/mL (≈ 1.75 µM)	2.5 µg/mL (≈ 3.98 µM)	–	–	0.49 µg/mL (≈ 0.779 µM)	0.86 µg/mL (≈ 1.37 µM)	–	–	–
CC[C@H](O)[C@H](O)CCCCCC[C@H](O)[C@H]1CC[C@H]([C@H]2CC[C@H]([C@H](O)CCCCCCCCCCCCC3=C[C@H](C)OC3=O)O2)O1 [BULLATETROCIN]	0.31 µg/mL (≈ 0.485 µM)	0.5 µg/mL (≈ 0.783 µM)	–	–	0.33 µg/mL (≈ 0.516 µM)	0.35 µg/mL (≈ 0.548 µM)	> 1 µg/mL	–	–	> 1 µg/mL	> 1 µg/mL	–	–	–
CCCCCCCCCCCC[C@H](O)[C@H]1CC[C@H]([C@H](O)CCCC[C@H](O)CCCCCCC[C@@H](O)CC2=C[C@H](C)OC2=O)O1 [ANNOGLACIN A]	0.49 µg/mL (≈ 0.784 µM)	–	5.1 ×10⁻⁷ ug/ml	–	0.0053 µg/mL (≈ 0.00848 µM)	0.0053 µg/mL (≈ 0.00848 µM)	0.9 µg/mL (≈ 1.44 µM)	–	9.6 ×10⁻⁴ ug/ml	–	0.002 µg/mL (≈ 0.0032 µM)	–	–	–
CCCCCCCCCCCC[C@H](O)[C@@H]1CC[C@H]([C@H](O)CCCCCC(O)CCCCCCC2=C[C@H](C)OC2=O)O1 (stereo partly drawn)	6.8 µg/mL (≈ 11.7 µM)	1.7 µg/mL (≈ 2.93 µM)	–	–	1.4 µg/mL (≈ 2.41 µM)	2 µg/mL (≈ 3.44 µM)	1.8 µg/mL (≈ 3.1 µM)	–	–	1.1 µg/mL (≈ 1.89 µM)	2.1 µg/mL (≈ 3.62 µM)	–	–	–
CCCCCCCCCCCC[C@@H](O)[C@H]1CC[C@H]([C@H](O)CCCCC[C@@H](O)CCCCCC[C@@H]2CC(CC(C)=O)C(=O)O2)O1 (mixture of isomers)	2.7 µg/mL	1.7 µg/mL	–	–	1.4 µg/mL	1.9 µg/mL	1.5 µg/mL	–	–	0.0045 µg/mL	2.2 µg/mL	–	–	–
CCCCCCCCCCCC[C@@H](O)[C@H]1CC[C@H]([C@H](O)CCCCCC(O)CCCCCCC2=C[C@H](C)OC2=O)O1 (stereo partly drawn)	8.9 µg/mL (≈ 15.3 µM)	2.2 µg/mL (≈ 3.79 µM)	–	–	1.7 µg/mL (≈ 2.93 µM)	3.9 µg/mL (≈ 6.71 µM)	2.2 µg/mL (≈ 3.79 µM)	–	–	2.9 µg/mL (≈ 4.99 µM)	2.7 µg/mL (≈ 4.65 µM)	–	–	–
CCCCCCCCCCCC[C@@H](O)[C@H]1CC[C@H]([C@H](O)CCC[C@@H](O)[C@@H](O)CCCCC[C@@H](O)CC2=C[C@H](C)OC2=O)O1 [ANNOMURICIN E]	18.4 µg/mL (≈ 30 µM)	0.15 µg/mL (≈ 0.245 µM)	–	–	0.67 µg/mL (≈ 1.09 µM)	0.11 µg/mL (≈ 0.179 µM)	1.4 µg/mL (≈ 2.28 µM)	–	–	0.24 µg/mL (≈ 0.392 µM)	0.15 µg/mL (≈ 0.245 µM)	–	–	–
CCCCCCCCCCCC/C=C\CC[C@@H](O)[C@H](O)CCCCCCC(=O)CCCCCCCC1=C[C@H](C)OC1=O [ANNOJAHNIN]	11 µg/mL (≈ 18.6 µM)	2.8 µg/mL (≈ 4.74 µM)	–	–	0.059 µg/mL (≈ 0.0998 µM)	1.5 µg/mL (≈ 2.54 µM)	4.9 µg/mL (≈ 8.29 µM)	–	–	0.023 µg/mL (≈ 0.0389 µM)	0.016 µg/mL (≈ 0.0271 µM)	–	–	–
CCCCCCC(O)CCC[C@H](O)[C@@H]1CC[C@@H]([C@@H]2CC[C@H]([C@H](O)CCCCCCCCCCCCC3=C[C@H](C)OC3=O)O2)O1 (stereo partly drawn) [CAROLIN A]	–	–	–	–	–	–	–	–	–	–	–	–	1 ×10⁻⁷ ug/ml	–
CCCCCC(O)CCCC[C@H](O)[C@@H]1CC[C@@H]([C@@H]2CC[C@H]([C@H](O)CCCCCCCCCCCCC3=C[C@H](C)OC3=O)O2)O1 (stereo partly drawn) [CAROLIN B]	–	–	–	–	–	–	–	–	–	–	–	–	5 ×10⁻⁶ ug/ml	–
CCCCCCCCCCCC[C@@H](O)[C@H]1CC[C@H]([C@H](O)CCCCCCCCCC[C@@H](O)CC2=C[C@@](C)(O)OC2=O)O1 [DONNAIENIN A]	–	–	–	–	–	–	–	< 10 µg/mL	–	–	–	–	–	< 1 µg/mL
CCCCCCCCCCCCCC[C@H](O)[C@@H](O)CC[C@H](O)[C@@H]1CC[C@@H](CCCCC[C@@H](O)CC2=C[C@@](C)(O)OC2O)O1 (stereo partly drawn) [DONNAIENIN B]	–	–	–	–	–	–	–	–	–	–	–	–	–	10 µg/mL (≈ 16.3 µM)
